{"source": "patent US20210361768A1", "about": "“METHODS AND MATERIALS FOR ASSESSING AND TREATING CANCERS” (Mayo Foundation for Medical Education and Research, priority 2018, published 2021)", "test_system": "HER2-positive breast cancer", "assay": "NeoALTTO trial: pathologic complete response and event-free survival by treatment arm and adaptive immune signature (AIS) status", "type": "in vivo, human", "conditions": "NeoALTTO patients", "key": {"[1]": {"conditions": "AIS deficient, listed as lapatinib"}}, "data": [{"smiles": "CS(=O)(=O)CCNCc1ccc(-c2ccc3ncnc(Nc4ccc(OCc5cccc(F)c5)c(Cl)c4)c3c2)o1", "note": "[Lapatinib, lapatinib]", "values": [{"measurement": "%6-yr EFS (6-year Event Free Survival rate)", "setting": "AIS deficient", "value": 68, "unit": "%"}, {"measurement": "% pCR (complete pathological response rate)", "setting": "AIS deficient", "value": 17, "unit": "%"}, {"measurement": "%6-yr EFS (6-year Event Free Survival rate)", "setting": "[1]", "value": 68, "unit": "%"}, {"measurement": "% pCR (complete pathological response rate)", "setting": "[1]", "value": 17, "unit": "%"}, {"measurement": "%6-yr EFS (6-year Event Free Survival rate)", "setting": "AIS enrich", "value": 65, "unit": "%"}, {"measurement": "% pCR (complete pathological response rate)", "setting": "AIS enrich", "value": 21, "unit": "%"}]}]}
